The record followed here is EP0488301A1, “New benzopyran compounds with pharmacological activity” (J. URIACH & CIA. S.A., priority 1990, dated 1992).

pEC50, pIC50: −log10 of the molar value. Read-outs that look alike come from different tables or passages of the source.

Experiment [1] relates to portal vein isolated from rat. The experiment can be described thus: Test 1: Inhibition of the contraction induced by noradrenaline in portal vein isolated from rat. Conditions: contraction induced by noradrenaline (3µM), compounds incubated for 30 minutes, 50% inhibition versus the basal response, read-out: IC₅₀. It counts as cell-based. Here is the method:
Test 1: Inhibition of the contraction induced by noradrenaline in portal vein isolated from rat.
Portal vein was extracted from adult male rats (between 200 and 250 g of body weight), which had been stunned by a blow in the head. Portal vein was installed into an isolated organ bath (Letica) containing a physiological saline solution (Hamilton et al., Br. J. Pharmacol., 1986, 88, 103-111) at 37 °C and a gas bubbler (5% CO₂ and 95% O₂). Contractions were induced by noradrenaline (3µM) and were reverted after thoroughly washing with physiological saline solution. Portal vein contraction was measured with an isometric force transducer and with an initial tension of 1 g. After two contractions with noradrenaline, performed in order to measure the tissue's basal response, the tested compounds were incubated for 30 minutes and a new contraction was induced. The concentration that produces a 50% inhibition (IC₅₀) versus the basal response was calculated.

In experiment [2] the test system is trachea isolated from guinea pig. The experiment can be described thus: Test 3: Direct relaxation of the trachea isolated from guinea pig. Type of experiment: cell-based. Conditions: Cavia porcellus, 50% of the maximum relaxation (relaxation induced by isoproterenol at 1x10⁻⁶ M), cumulative addition, read-out: EC₅₀. The protocol: Test 3 -Direct relaxation of the trachea isolated from guinea pig.
This test was performed according to the experimental model described by Emmerson, J. and Mackay, D. (J. Pharm. Pharmacol.,1979,31, 798). Tracheas were extracted from male guinea pigs of 400 g of body weight, which had been stunned by a blow in the head. Then, tracheas were cut in zigzag and placed into an isolated organ bath (Letica) containing Krebs-Henseleit solution at 37°C and were bubbled with carbogen (95% O₂ and 5% CO₂). The relaxation of the trachea was measured using an isometric force transducer. The basal tension was 0.5 g. The tested compounds were accumulatively added to the bath and the effective concentration which produces a 50% of the maximum relaxation (EC₅₀) was calculated.

Experiment [3] has as its system Spontaneously hypertense rats. Description: Test 2: Lowering of the arterial pressure in conscious hypertense rats. It counts as in vivo, rat. Conditions: dose which produces a decrease of 30 mm Hg of the systolic arterial pressure, 3 doses and 3 animals per dose; for ED (30 mmHg decrease): Rattus norvegicus, po, read-out: ED₃₀; for ED₃₀: p.o. Here is the method:
Test 2: Lowering of the arterial pressure in conscious hypertense rats.
Spontaneously hypertense rats (between 200 and 250 g of body weight) of more than 8 weeks of age have been used. Diastolic and systolic arterial pressure of the rat was measured at the caudal artery using a special sphygnomanometer (Letica 5007 and 5007/4) attached to the animal's tail. To ensure rapid and reliable data, animals were placed in a heating plate at 37°C, with the aim to produce a vasodilatation that ensured a better fixation of the rat tail to the transducer chamber. During the experiment, rats are conscious and fixed to a clamp. The tested products were administered orally. Arterial pressure was measured every 30 minutes and 10 minutes before the administration of the tested compound. The ED₃₀ (dose which produces a decrease of 30 mm Hg of the systolic arterial pressure) was calculated for each compound, using 3 doses and 3 animals per dose.

Consider `CC1(C)Oc2ccc(C#N)cc2[C@@H](NC(=O)[C@@H]2CCCN2C(=O)Oc2ccccc2)[C@@H]1O` (mixture of isomers) [Compound 34, Trans 3,4-dihydro-2,2-dimethyl-3-hydroxy-4-[(2S)-1-phenoxycarbonyl-2-pyrrolidinylcarbonylamino]-2H-1-benzopyran-6-carbonitrile], for which the pIC50 in experiment [1] (Rattus norvegicus, 0.5 h) is 5.60. Moreover, the pEC50 in experiment [2] is 5.60. Also, the ED (30 mmHg decrease) in experiment [3] worked out at 3 mg/kg.
As to `CC1(C)Oc2ccc(C#N)cc2[C@@H](NC(=O)[C@@H]2CCCN2C(=O)OCc2ccccc2)[C@@H]1O` (mixture of isomers) [Compound 35, Trans 3,4-dihydro-2,2-dimethyl-3-hydroxy-4-[(2S)-1-benzyloxycarbonyl-2-pyrrolidinylcarbonylamino]-2H-1-benzopyran-6-carbonitrile], the pEC50 in experiment [2] is 6.05. Besides, the ED (30 mmHg decrease) in experiment [3] was 0.05 mg/kg.
`COc1cccc(COC(=O)N2CCC[C@H]2C(=O)N[C@@H]2c3cc(C#N)ccc3OC(C)(C)[C@H]2O)c1` (mixture of isomers) [Compound 58, Trans 3,4-dihydro-2,2-dimethyl-3-hydroxy-4-[(2S)-1-[(3-methoxyphenyl)methyloxycarbonyl]-2-pyrrolidinylcarbonylamino)-2H-1-benzopyran-6-carbonitrile]: the pIC50 in experiment [1] (Rattus norvegicus, 0.5 h) was 6.30. In addition, the ED (30 mmHg decrease) in experiment [3] was under 1 mg/kg.
On to `CC1(C)Oc2ccc(C#N)cc2[C@@H](NC(=O)[C@@H]2CCCN2C(=O)OCc2cccc(Cl)c2)[C@@H]1O` (mixture of isomers) [Compound 60, Trans 3,4-dihydro-2,2-dimethyl-3-hydroxy-4-[(2S)-1-[(3-chlorophenyl)methyloxycarbonyl]-2-pyrrolidinylcarbonylamino)-2H-1-benzopyran-6-carbonitrile], for which, in experiment [1] (Rattus norvegicus, 0.5 h), the pIC50 is 6.70. Further, in experiment [2], the pEC50 was 7.00. The ED (30 mmHg decrease) in experiment [3] is under 0.5 mg/kg.
As for `CC1(C)Oc2ccc(C#N)cc2[C@@H](NC(=S)N2CCCC2)[C@@H]1O` (relative stereo) [Compound 1, Trans 3,4-dihydro-2,2-dimethyl-3-hydroxy-4-(1-pyrrolidinylthiocarbonylamino)-2H-1-benzopyran-6-carbonitrile], in experiment [1] (Rattus norvegicus, 0.5 h), the pIC50 is 5.51. Besides, the ED (30 mmHg decrease) in experiment [3] was over 3 mg/kg.
For `CC1(C)Oc2ccc(C#N)cc2[C@@H](NC(=S)N2CCCCC2)[C@@H]1O` (relative stereo) [Compound 3, Trans 3,4-dihydro-2,2-dimethyl-3-hydroxy-4-(1-piperidinylthiocarbonylamino)-2H-1-benzopyran-6-carbonitrile], in experiment [1] (Rattus norvegicus, 0.5 h), the pIC50 is 5.38. Moreover, the pEC50 in experiment [2] was 6.10. In experiment [3], the ED (30 mmHg decrease) was 0.5 mg/kg.
The corresponding values for `CN1CCN(C(=S)N[C@@H]2c3cc(C#N)ccc3OC(C)(C)[C@H]2O)CC1` (relative stereo) [Compound 7, Trans 3,4-dihydro-2,2-dimethyl-3-hydroxy-4-(4-methyl-1-piperazinylthiocarbonylamino)-2H-1-benzopyran-6-carbonitrile] are 5.28, 5.89 and 0.17 mg/kg.
Take `CC(C)(C)OC(=O)N1CCCCC1C(=O)N[C@@H]1c2cc(C#N)ccc2OC(C)(C)[C@H]1O` (relative stereo) [Compound 13, Trans 3,4-dihydro-2,2-dimethyl-3-hydroxy-4-(1-tert-butoxycarbonyl-2-piperidinylcarbonylamino)-2H-1-benzopyran-6-carbonitrile]: the pIC50 in experiment [1] (Rattus norvegicus, 0.5 h) is 4.51. In addition, in experiment [2], the pEC50 is 5.22. For the same compound, the ED (30 mmHg decrease) in experiment [3] was 0.18 mg/kg.
The corresponding values for `CC1(C)Oc2ccc(C#N)cc2[C@@H](NC(=O)C2CCCCN2C(=O)Oc2ccccc2)[C@@H]1O` (relative stereo) [Compound 18, Trans 3,4-dihydro-2,2-dimethyl-3-hydroxy-4-(1-phenyloxycarbonyl-2-piperidinylcarbonylamino)-2H-1-benzopyran-6-carbonitrile] are 6.10, 6.00 and 0.7 mg/kg.
The corresponding values for `CC1(C)Oc2ccc(C#N)cc2[C@@H](NC(=O)C2CCCCN2C(=O)OCc2ccccc2)[C@@H]1O` (relative stereo) [Compound 19, Trans 3,4-dihydro-2,2-dimethyl-3-hydroxy-4-(1-benzyloxycarbonyl-2-piperidinylcarbonylamino)-2H-1-benzopyran-6-carbonitrile] are 6.10, 5.35 and 0.7 mg/kg.
For `CC1(C)Oc2ccc(C#N)cc2[C@@H](NC(=O)C2CCCCC2)[C@@H]1O` (relative stereo) [Compound 45, Trans 4-cyclohexylcarbonylamino-3,4-dihydro-2,2-dimethyl-3-hydroxy-2H-1-benzopyran-6-carbonitrile] the same measures were 5.46, 6.40 and 0.65 mg/kg.
On to `CC(C)COC(=O)N1CCC[C@H]1C(=O)N[C@@H]1c2cc(C#N)ccc2OC(C)(C)[C@H]1O` (single isomer, unassigned) [33(A)], for which, in experiment [1], the pIC50 is under 5.00. In experiment [3], this compound returned an ED₃₀ of 0.3 mg/kg.
Consider `CC(C)COC(=O)N1CCC[C@H]1C(=O)N[C@@H]1c2cc(C#N)ccc2OC(C)(C)[C@H]1O` (single isomer, unassigned) [33(B)], for which the pIC50 in experiment [1] is 6.52. The pEC50 in experiment [2] was 5.04. This compound had an ED₃₀ in experiment [3] of under 0.1 mg/kg.
With `CC(C)(C)OC(=O)N1CCC[C@H]1C(=O)N[C@H]1c2cc(C#N)ccc2OC(C)(C)[C@@H]1O` [28(A), Trans (3R,4S)-3,4-dihydro-2,2-dimethyl-3-hydroxy-4-[(2S)-1-tert-butoxycarbonyl-2-pyrrolidinylcarbonylamino]-2H-1-benzopyran-6-carbonitrile], the pIC50 in experiment [1] (Rattus norvegicus, 0.5 h) is under 5.00.
For `CC(C)(C)OC(=O)N1CCC[C@H]1C(=O)N[C@@H]1c2cc(C#N)ccc2OC(C)(C)[C@H]1O` [28(B), Trans (3S,4R)-3,4-dihydro-2,2-dimethyl-3-hydroxy-4-[(2S)-1-tert-butoxycarbonyl-2-pyrrolidinylcarbonylamino]-2H-1-benzopyran-6-carbonitrile], the pIC50 in experiment [1] (Rattus norvegicus, 0.5 h) is 5.59. Besides, in experiment [2], the pEC50 is 5.32. In addition, the ED₃₀ in experiment [3] was 1.0 mg/kg.
For `CC1(C)Oc2ccc(C#N)cc2[C@H](NC(=O)[C@@H]2CCCN2C(=O)OCc2ccccc2)[C@H]1O` [35(A), Trans (3R,4S)-3,4-dihydro-2,2-dimethyl-3-hydroxy-4-[(2S)-1-benzyloxy-carbonyl-2-pyrrolidinylcarbonylamino]-2H-1-benzopyran-6-carbonitrile], in experiment [1] (Rattus norvegicus, 0.5 h), the pIC50 is 5.62.
The same measure, in the same setting: under `CC1(C)Oc2ccc(C#N)cc2[C@@H](NC(=O)[C@@H]2CCCN2C(=O)OCc2ccccc2)[C@@H]1O` [35(B), Trans (3S,4R)-3,4-dihydro-2,2-dimethyl-3-hydroxy-4-[(2S)-1-benzyloxy-carbonyl-2-pyrrolidinylcarbonylamino]-2H-1-benzopyran-6-carbonitrile] stands 6.70.
